Reference: patent US20220088144A1, “SGLT-2 INHIBITORS OR IL-1R ANTAGONISTS FOR REDUCTION OF HYPOGLYCAEMIA AFTER BARIATRIC SURGERY” (UNIVERSITÄTSSPITAL BASEL, priority 2019, published 2022)

Assays:
Assay type in all cases: in vivo, human
[1] = system: patients after bariatric surgery with post-prandial hypoglycaemia; experiment: Liquid mixed-meal test after single dose: plasma glucose and glucose-requiring hypoglycaemic events; conditions: for number of events (hypoglycemia requiring glucose rescue), estimate vs placebo: FIG. 5b, generalized linear additive mixed effect model; for glucose, estimate vs placebo: FIG. 5c, linear mixed effect model; for severity of hypoglycemic events / events requiring rescue glucose administration: pre-treatment vs placebo (7 of 12 patients on placebo), p=0.037; for glucose-requiring hypoglycaemic events (%): single dose before mixed meal, placebo 61.5%
Experimental: This study is a placebo controlled, double-blind, randomized, cross-over proof-of-concept study. The study consists of a screening visit and three study dates that need to have a minimum interval between the dates of four days and maximum of two weeks. Ideally, all three study dates are performed within 14 days allowing the usage of one single flash glucose monitoring system sensor (Freestyle Libre®, Abbott) for the entire period. The screening visit is about 90 min. Each study day lasts 6.5 hours and consists of the same schedule. If the subject agrees to use a glucose flash monitoring system, the sensor is installed the afternoon before study day 1 and the subject is instructed in the use of the system.
(§1) The 12 subjects were randomly assigned into six groups consisting of two subjects receiving study medication in a double-blind, crossed-over manner as outlined in FIG. 2. Patients need to be sober at least eight hours before ingestion of mixed-meal. To ensure that fasting period is not too long, patients receive a small late evening meal consisting of 4 DarVida Natural Crackers as well as 3 Sinergy® drops (see Appendix for specific contents) or are alternatively pleased to have their dinner at around 10 pm. Treatment consists of a single subcutaneous injection of 100 mg Anakinra (Kineret®) or matched placebo three hours before ingestion of the mixed-meal and of a single oral tablet of 10 mg of empagliflozin (Jardiance®) or matched placebo two hours before mixed-meal at each study day. Patients were randomised to receive in different sequences either (1) anakinra and an oral placebo to empagliflozin, (2) empagliflozin and a subcutaneous placebo (0.67 ml 0.9% saline) to anakinra or (3) double placebo. Participants, investigators and study nurses were blinded to the study drug.
Between the study drug application questionnaires concerning dumping symptoms were answered. Regular measurement of vital parameters, blood samples and hypoglycaemia assessments were performed as outlined in FIG. 1. After ingestion of the liquid mixed-meal subjects had to rest in supine position (at least 45°). One subject was not able to ingest the full specified liquid mixed meal (carbohydrate load of 40 g instead of 60 g) on the first study day and thereafter received the same portion of liquid mixed meal on subsequent study days.
In case of symptomatic hypoglycaemia before the prespecified next laboratory control immediate glucose measurements with Freestyle Libre® and POCT respectively were performed and in case of hypoglycemic values (<3.0 mmol/l) laboratory samples were drawn and glucose (10 g) was given intravenously. Samples were named according to the exact timepoint and the following pre-specified samples were taken according to the study schedule. If patients were not symptomatic glucose (10 g) was given intravenously only in case of POCT glucose values below 2.5 mmol/l.
Blood glucose measurements regularly took place and an inserted catheter in case of hypoglycaemia was adjusted at the beginning of each study date. In case of a symptomatic decrease of blood glucose levels in symptomatic patients below 2.5 mmol/l, counter-regulatory actions (e.g. 100 ml of 10% glucose) were initiated after taking the blood sample panel.
(§2) The primary outcome in this study is the change of post-prandial hypoglycaemia after treatment with empagliflozin (Jardiance®) or anakinra (Kineret®) compared to placebo. This was assessed by blood glucose measurements (capillary POCT measurements and plasma glucose) as well as clinical scoring systems (Edinburgh Hypoglycaemia Scale (Deary et al. Diabetologia 1993; 36(8): 771-7), Mixed-Meal-Test (Wiesli et al. Eur J Endocrinol 2005; 152(4): 605-10.) Stanford sleepiness scale).
At each study day the same schedule took place. […]

[2] = system: patients after bariatric surgery with post-prandial hypoglycaemia; experiment: Mixed-meal test: insulin, c-peptide, GLP-1, glucagon, insulin secretion and sensitivity indices; conditions: for insulin AUC, estimate vs placebo: FIG. 5e; for insulin AUC, estimate vs placebo / c-peptide, estimate vs placebo / insulin, estimate vs placebo / insulin secretion index, effect estimate vs placebo: linear mixed effect model; for c-peptide, estimate vs placebo: FIG. 5f; for c-peptide, estimate vs placebo / insulin, estimate vs placebo: log-transformed outcome; for insulin, estimate vs placebo: FIG. 5d; for insulin secretion index, effect estimate vs placebo: placebo average 108.0 pmol/mmol; for Whole body insulin sensitivity index / Insulin secretion index: median, n=12; for Whole body insulin sensitivity index: placebo 38.0, single dose before mixed meal; for Insulin secretion index: placebo 104.6, single 10 mg empagliflozin oral 2 h or 100 mg anakinra s.c. 3 h before mixed meal; for insulin secretion / insulin release and c-peptide secretion over time: vs placebo
Source text: as §1
(§3) The secondary objectives are to evaluate whether treatment of empagliflozin (Jardiance®) or anakinra (Kineret®) have effects on the following aspects: • level of insulin secretion and sensitivity • levels of GLP-1, glucagon and C-peptide • levels of IL-6; IL-1Ra, CRP • scores in Edinburgh Hypoglycaemia Scale (clinical score for assessment of hypoglycemia), Stanford Sleepiness Scale (clinical score of assessment of sleepiness) as well as Sigstad Score (clinical score for early and late dumping symptoms) • Length of time and amount of glucose needed for restoring normoglycemia.
Insulin secretion was measured using standard insulin ELISA.
(§4) Statistical analysis for this proof-of-concept translational clinical trial was done on a per-protocol basis. Sample size was based on practical considerations due to the lack of pre-existing data for this intervention. All analyses are to be considered exploratory. Analysis of continuous dependent outcome variables (e.g. glucose, insulin, c-peptide, GLP-1, glucagon, insulin secretion index and sensitivity, IL-1p, IL-6, IL-8, TNFα), was done using linear mixed effect models fit by maximum likelihood. Analysis of the binary dependent outcome variables occurrence of severe hypoglycemia requiring glucose rescue and occurrence of composite score ≥6 on the Edinburgh Hypoglycemia Scale was done using a generalized linear additive mixed effect model fit by maximum likelihood (Laplace approximation). Models were fit including fixed effects for categorical variables such as gender, the occurrence of hypoglycemia, treatment and in case of values measured in cell culture supernatants, activation status (non-stimulated, LPS-simulated), as well as the continuous variables time and BMI as indicated. A random-effect for patient was equally included (random by-subject intercepts, fixed slopes). Models were computed using the R “Ime4” and “gamm4” packages. • Individual models were visually assessed for the presence of heteroscedasticity, collinearity and normality of residuals. […] For visual representation, log-transformed outcome values were back-transformed to their initial values.
Treatment effects are presented in Table 6 as mean effect size estimates with 95% CIs, test-statistics and multiple comparison adjusted p-values (=FDR values). • Missing values for insulin (n=1), GLP-1 (n=4) and glucagon (n=5) were assumed to be missing at random and imputed using multiple imputation with the R-package “mice”. Inferential statistical analyses were done using R version 3.5.2. Descriptive statistics were done with GraphPad Prism8 version 8.0.1(145). […]

[3] = system: patients after bariatric surgery with post-prandial hypoglycaemia; experiment: Clinical symptom scores during mixed-meal test (Edinburgh Hypoglycemia Scale, Sigstad Score, Stanford Sleepiness Scale); design: key to Edinburgh Hypoglycemia Scale score, timepoint 180 min / Edinburgh Hypoglycemia Scale score, timepoint −120 min / Edinburgh Hypoglycemia Scale score, timepoint 0 min / Edinburgh Hypoglycemia Scale score, timepoint 60 min / Edinburgh Hypoglycemia Scale score, timepoint 90 min / Edinburgh Hypoglycemia Scale score, timepoint 120 min / Edinburgh Hypoglycemia Scale score, timepoint 150 min: 0 (=no symptoms); 3 (=severe symptoms); a = sweating; b = palpitations; c = shaking; d = hunger; e = confusion; f = drowsiness; g = odd behaviour; h = speech difficulty; i = incoordination; conditions: for Edinburgh Hypoglycemia Scale score, timepoint 0 min / Edinburgh Hypoglycemia Scale score, timepoint 60 min / Edinburgh Hypoglycemia Scale score, timepoint 90 min / Edinburgh Hypoglycemia Scale score, timepoint 120 min / Edinburgh Hypoglycemia Scale score, timepoint 150 min / Edinburgh Hypoglycemia Scale score, timepoint 180 min / Edinburgh Hypoglycemia Scale score, timepoint −120 min: per patient and visit; for Edinburgh Hypoglycemia Scale score, timepoint 60 min: 60 min after meal; for Edinburgh Hypoglycemia Scale score, timepoint 90 min: 90 min after meal; for Edinburgh Hypoglycemia Scale score, timepoint 120 min: 120 min after meal; for Edinburgh Hypoglycemia Scale score, timepoint 150 min: 150 min after meal; for Edinburgh Hypoglycemia Scale score, timepoint 180 min: 180 min after meal; for model coefficient (treatment vs placebo) for occurrence of Edinburgh composite score ≥6: headed FIG. 11a, generalized linear additive mixed effect model; for Edinburgh Hypoglycemia Scale score, timepoint −120 min: −120 min relative to meal (time of oral dosing)
Experimental: as §2, §3, §4

OC[C@H]1O[C@@H](c2ccc(Cl)c(Cc3ccc(O[C@H]4CCOC4)cc3)c2)[C@H](O)[C@@H](O)[C@@H]1O [empagliflozin]
glycaemia 30 minutes after ingestion of the mixed meal ([1]; 30 min, 10 mg empagliflozin, the other value is placebo): 10.1 mmol/L | glycaemia 60 minutes after ingestion of the mixed meal ([1]; 60 min, 10 mg empagliflozin, the other value is placebo): 6.9 mmol/L | glycaemia 90 minutes after ingestion of the mixed meal ([1]; 90 min, 10 mg empagliflozin, the other value is placebo): 3.5 | number of events (hypoglycemia requiring glucose rescue), estimate vs placebo [1]: −2.882 | glucose, estimate vs placebo [1]: −0.472 | severity of hypoglycemic events / events requiring rescue glucose administration [1]: significantly reduced the severity of hypoglycemic events with only two events requiring rescue glucose administration | glucose-requiring hypoglycaemic events (%) [1]: 16.6% | peak postprandial glucose levels ([1]; vs placebo): reduced | insulin AUC, estimate vs placebo [2]: −19.32 | c-peptide, estimate vs placebo [2]: −0.2237 | insulin, estimate vs placebo [2]: −0.852 | insulin secretion index, effect estimate vs placebo [2]: −10.8 pmol/mmol | Whole body insulin sensitivity index [2]: 84.6 | Insulin secretion index [2]: 99.2 | insulin secretion / insulin release and c-peptide secretion over time [2]: reduced | Edinburgh Hypoglycemia Scale score, timepoint 0 min [3]: 0 | Edinburgh Hypoglycemia Scale score, timepoint 60 min [3]: 0 | Edinburgh Hypoglycemia Scale score, timepoint 90 min [3]: 0 | Edinburgh Hypoglycemia Scale score, timepoint 120 min [3]: 0 | Edinburgh Hypoglycemia Scale score, timepoint 150 min [3]: 0 | Edinburgh Hypoglycemia Scale score, timepoint 180 min [3]: 0 | model coefficient (treatment vs placebo) for occurrence of Edinburgh composite score ≥6 [3]: −2.429 | Edinburgh Hypoglycemia Scale score, timepoint −120 min [3]: 0

anakinra: CAS NO 143090-92-0; recombinant, non-glycosylated form of the human interleukin-1 receptor antagonist (IL-1 Ra), 153 amino acids
number of events (hypoglycemia requiring glucose rescue), estimate vs placebo [1]: −2.882 | glucose, estimate vs placebo [1]: 0.133 | severity of hypoglycemic events / events requiring rescue glucose administration [1]: significantly reduced the severity of hypoglycemic events with only two events requiring rescue glucose administration | glucose-requiring hypoglycaemic events (%) [1]: 16.6% | changes of the glucose curve within the first 90 minutes ([1]; vs placebo): did not result in significant changes | insulin AUC, estimate vs placebo [2]: −13.9 | c-peptide, estimate vs placebo [2]: −0.0912 | insulin, estimate vs placebo [2]: −0.266 | insulin secretion index, effect estimate vs placebo [2]: −18.5 pmol/mmol | Whole body insulin sensitivity index [2]: 72.1 | Insulin secretion index [2]: 91.6 | insulin secretion / insulin release and c-peptide secretion over time [2]: reduced | Edinburgh Hypoglycemia Scale score, timepoint 0 min [3]: 0 | Edinburgh Hypoglycemia Scale score, timepoint 60 min [3]: 0 | Edinburgh Hypoglycemia Scale score, timepoint 90 min [3]: 0 | Edinburgh Hypoglycemia Scale score, timepoint 120 min [3]: 0 | Edinburgh Hypoglycemia Scale score, timepoint 150 min [3]: 0 | Edinburgh Hypoglycemia Scale score, timepoint 180 min [3]: 0 | model coefficient (treatment vs placebo) for occurrence of Edinburgh composite score ≥6 [3]: −2.429 | Edinburgh Hypoglycemia Scale score, timepoint −120 min [3]: 0
